We go through two compounds from patent US20100081162A1, “METHOD OF EVALUATING ANTIWRINKLE SUBSTANCE AND METHOD OF ASSESSING THE SKIN” (POLA CHEMICAL INDUSTRIES INC., priority 2007, published 2010).

In one test the test system is collagen fiber bundles. The experiment in a line: Tightness in collagen fiber bundles in collagen gel with NHDF in the presence of heparin (SEM). In kind it is cell-based, human.
The test system of the next test is integrin gene. The experiment in a line: Effect of farrerol on expression amount of integrin gene (real-time PCR). In kind it is cell-based. To be noted: normal human fibroblasts, 5 days. The protocol: (§1) In the normal human fibroblasts cultivated in a culture solution with or without farrerol for 5 days, the expression amounts of the integrin gene and the type-I collagen gene as a main component of dermal collagen were evaluated by the real-time PCR. The procedure followed the procedure in Example 1 except for the used primer. It should be noted that the following QuantiTect (registered trademark) Primer Assays was used as a primer. […] Specifically, the expression amount of the β1 protein gene increased by a factor of about 1.9, the expression amount of the α2 protein gene increased by a factor of about 2.6, and the expression amount of the α5 protein gene increased by a factor of about 1.7.
On the technique in general: Quantitative PCR measures a nucleic acid by following its amplification.

In another test the test system is β1 protein gene (ITGB1). The experiment in a line: Effect of farrerol on expression amount of β1 protein gene (real-time PCR). In kind it is cell-based. To be noted: normal human fibroblasts, 5 days. On the procedure:
as §1

Another test has as its system α2 protein gene (ITGA2). The experiment in a line: Effect of farrerol on expression amount of α2 protein gene (real-time PCR). In kind it is cell-based. The following applies: normal human fibroblasts, 5 days. On the procedure: as §1
A further test relates to α5 protein gene (ITGA5). The experiment in a line: Effect of farrerol on expression amount of α5 protein gene (real-time PCR). In kind it is cell-based. To be noted: normal human fibroblasts, 5 days. On the procedure:
as §1

Test [1] deals with type-I collagen gene (COL1A1, COL1A2). Nature of the test: Effect of farrerol on expression amount of type-I collagen gene (real-time PCR). In kind it is cell-based. To be noted: normal human fibroblasts, 5 days. The protocol:
as §1

As to `Cc1c(O)c(C)c2c(c1O)C(=O)C[C@@H](c1ccc(O)cc1)O2` [farrerol], the “effect on inhibition of tightness of collagen fiber bundles due to heparin” value with collagen fiber bundles (NHDF in collagen gel, 0.1% or 1% heparin, farrerol 10^−6% or 10^−7% at final, 5 days, SEM) is recorded as “suppressed inhibition of tightness of collagen fiber bundles due to heparin”. The “increase in the expression amount of the integrin gene (factor, with vs without farrerol)” value with integrin gene is reported as no less than 1.5 factor. Besides, the “increase in the expression amount of the β1 protein gene (factor)” value with β1 protein gene (ITGB1) is “about 1.9 factor”. The “increase in the expression amount of the α2 protein gene (factor)” value in the test on α2 protein gene (ITGA2) is reported as “about 2.6 factor”. For the same compound, the “increase in the expression amount of the α5 protein gene (factor)” value with α5 protein gene (ITGA5) was “about 1.7 factor”. The “expression amount of the type-I collagen gene” value in test [1] was “not significantly increased”.
As for Heparin, in the test with collagen fiber bundles (heparin alone), the “effect on tightness in collagen fiber bundles” value is “inhibitory effect”.
